Results as given in ChEMBL document CHEMBL1201862, “PubChem BioAssay data set” (2004).
Activity calls are given as the source filed them.

Key:
[1] = target: T1, NADPH oxidase 1 (Homo sapiens, UniProt Q9Y5S8); experiment: Late-stage luminescence-based cell-based dose response assay to identify inhibitors of NADPH oxidase 1 (NOX1): Purchased analogs 2.; format: functional
T1 sequence (Q9Y5S8 whole entry): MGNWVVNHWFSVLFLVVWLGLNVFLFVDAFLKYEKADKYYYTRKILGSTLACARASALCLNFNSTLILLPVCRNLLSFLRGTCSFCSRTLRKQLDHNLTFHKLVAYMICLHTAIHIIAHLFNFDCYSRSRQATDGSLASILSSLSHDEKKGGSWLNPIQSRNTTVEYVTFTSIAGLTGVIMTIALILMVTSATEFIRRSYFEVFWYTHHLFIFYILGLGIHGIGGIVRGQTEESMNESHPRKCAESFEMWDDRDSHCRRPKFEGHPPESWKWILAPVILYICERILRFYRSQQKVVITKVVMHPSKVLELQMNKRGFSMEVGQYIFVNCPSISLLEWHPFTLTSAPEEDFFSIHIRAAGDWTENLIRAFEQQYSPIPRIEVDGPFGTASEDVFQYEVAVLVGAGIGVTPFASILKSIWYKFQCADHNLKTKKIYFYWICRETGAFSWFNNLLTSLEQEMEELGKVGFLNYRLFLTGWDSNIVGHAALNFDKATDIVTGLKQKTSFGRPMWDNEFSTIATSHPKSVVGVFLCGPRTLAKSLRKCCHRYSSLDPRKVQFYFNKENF

[2] = target: Peroxisome proliferator-activated receptor gamma/Nuclear receptor corepressor 2 (Homo sapiens, UniProt P37231+Q9Y618); experiment: Counterscreen for NR2E3 inverse agonists: TR-FRET-based biochemical high throughput dose response assay to identify inverse agonists of the interaction between peroxisome proliferator-activated receptor gamma (PPARg) and nuclear receptor co-repressor 2 (NCOR2).; format: functional
Chain of Peroxisome proliferator-activated receptor gamma/Nuclear receptor corepressor 2 (P37231 whole entry): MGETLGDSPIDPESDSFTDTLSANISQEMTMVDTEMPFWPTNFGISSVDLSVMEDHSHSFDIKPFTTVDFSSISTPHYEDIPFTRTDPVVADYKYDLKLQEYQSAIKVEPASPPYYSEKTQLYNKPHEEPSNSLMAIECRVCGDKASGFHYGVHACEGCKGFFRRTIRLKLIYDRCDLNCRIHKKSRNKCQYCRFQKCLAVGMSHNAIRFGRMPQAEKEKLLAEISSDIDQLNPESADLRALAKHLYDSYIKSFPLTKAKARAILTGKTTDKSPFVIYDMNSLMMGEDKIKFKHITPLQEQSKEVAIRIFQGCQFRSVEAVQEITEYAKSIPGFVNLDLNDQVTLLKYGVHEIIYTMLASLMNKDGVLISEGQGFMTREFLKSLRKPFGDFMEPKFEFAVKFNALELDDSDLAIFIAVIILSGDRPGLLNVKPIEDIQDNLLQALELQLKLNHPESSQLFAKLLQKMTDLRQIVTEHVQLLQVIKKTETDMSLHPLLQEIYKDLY
Chain of Peroxisome proliferator-activated receptor gamma/Nuclear receptor corepressor 2 (Q9Y618 whole entry): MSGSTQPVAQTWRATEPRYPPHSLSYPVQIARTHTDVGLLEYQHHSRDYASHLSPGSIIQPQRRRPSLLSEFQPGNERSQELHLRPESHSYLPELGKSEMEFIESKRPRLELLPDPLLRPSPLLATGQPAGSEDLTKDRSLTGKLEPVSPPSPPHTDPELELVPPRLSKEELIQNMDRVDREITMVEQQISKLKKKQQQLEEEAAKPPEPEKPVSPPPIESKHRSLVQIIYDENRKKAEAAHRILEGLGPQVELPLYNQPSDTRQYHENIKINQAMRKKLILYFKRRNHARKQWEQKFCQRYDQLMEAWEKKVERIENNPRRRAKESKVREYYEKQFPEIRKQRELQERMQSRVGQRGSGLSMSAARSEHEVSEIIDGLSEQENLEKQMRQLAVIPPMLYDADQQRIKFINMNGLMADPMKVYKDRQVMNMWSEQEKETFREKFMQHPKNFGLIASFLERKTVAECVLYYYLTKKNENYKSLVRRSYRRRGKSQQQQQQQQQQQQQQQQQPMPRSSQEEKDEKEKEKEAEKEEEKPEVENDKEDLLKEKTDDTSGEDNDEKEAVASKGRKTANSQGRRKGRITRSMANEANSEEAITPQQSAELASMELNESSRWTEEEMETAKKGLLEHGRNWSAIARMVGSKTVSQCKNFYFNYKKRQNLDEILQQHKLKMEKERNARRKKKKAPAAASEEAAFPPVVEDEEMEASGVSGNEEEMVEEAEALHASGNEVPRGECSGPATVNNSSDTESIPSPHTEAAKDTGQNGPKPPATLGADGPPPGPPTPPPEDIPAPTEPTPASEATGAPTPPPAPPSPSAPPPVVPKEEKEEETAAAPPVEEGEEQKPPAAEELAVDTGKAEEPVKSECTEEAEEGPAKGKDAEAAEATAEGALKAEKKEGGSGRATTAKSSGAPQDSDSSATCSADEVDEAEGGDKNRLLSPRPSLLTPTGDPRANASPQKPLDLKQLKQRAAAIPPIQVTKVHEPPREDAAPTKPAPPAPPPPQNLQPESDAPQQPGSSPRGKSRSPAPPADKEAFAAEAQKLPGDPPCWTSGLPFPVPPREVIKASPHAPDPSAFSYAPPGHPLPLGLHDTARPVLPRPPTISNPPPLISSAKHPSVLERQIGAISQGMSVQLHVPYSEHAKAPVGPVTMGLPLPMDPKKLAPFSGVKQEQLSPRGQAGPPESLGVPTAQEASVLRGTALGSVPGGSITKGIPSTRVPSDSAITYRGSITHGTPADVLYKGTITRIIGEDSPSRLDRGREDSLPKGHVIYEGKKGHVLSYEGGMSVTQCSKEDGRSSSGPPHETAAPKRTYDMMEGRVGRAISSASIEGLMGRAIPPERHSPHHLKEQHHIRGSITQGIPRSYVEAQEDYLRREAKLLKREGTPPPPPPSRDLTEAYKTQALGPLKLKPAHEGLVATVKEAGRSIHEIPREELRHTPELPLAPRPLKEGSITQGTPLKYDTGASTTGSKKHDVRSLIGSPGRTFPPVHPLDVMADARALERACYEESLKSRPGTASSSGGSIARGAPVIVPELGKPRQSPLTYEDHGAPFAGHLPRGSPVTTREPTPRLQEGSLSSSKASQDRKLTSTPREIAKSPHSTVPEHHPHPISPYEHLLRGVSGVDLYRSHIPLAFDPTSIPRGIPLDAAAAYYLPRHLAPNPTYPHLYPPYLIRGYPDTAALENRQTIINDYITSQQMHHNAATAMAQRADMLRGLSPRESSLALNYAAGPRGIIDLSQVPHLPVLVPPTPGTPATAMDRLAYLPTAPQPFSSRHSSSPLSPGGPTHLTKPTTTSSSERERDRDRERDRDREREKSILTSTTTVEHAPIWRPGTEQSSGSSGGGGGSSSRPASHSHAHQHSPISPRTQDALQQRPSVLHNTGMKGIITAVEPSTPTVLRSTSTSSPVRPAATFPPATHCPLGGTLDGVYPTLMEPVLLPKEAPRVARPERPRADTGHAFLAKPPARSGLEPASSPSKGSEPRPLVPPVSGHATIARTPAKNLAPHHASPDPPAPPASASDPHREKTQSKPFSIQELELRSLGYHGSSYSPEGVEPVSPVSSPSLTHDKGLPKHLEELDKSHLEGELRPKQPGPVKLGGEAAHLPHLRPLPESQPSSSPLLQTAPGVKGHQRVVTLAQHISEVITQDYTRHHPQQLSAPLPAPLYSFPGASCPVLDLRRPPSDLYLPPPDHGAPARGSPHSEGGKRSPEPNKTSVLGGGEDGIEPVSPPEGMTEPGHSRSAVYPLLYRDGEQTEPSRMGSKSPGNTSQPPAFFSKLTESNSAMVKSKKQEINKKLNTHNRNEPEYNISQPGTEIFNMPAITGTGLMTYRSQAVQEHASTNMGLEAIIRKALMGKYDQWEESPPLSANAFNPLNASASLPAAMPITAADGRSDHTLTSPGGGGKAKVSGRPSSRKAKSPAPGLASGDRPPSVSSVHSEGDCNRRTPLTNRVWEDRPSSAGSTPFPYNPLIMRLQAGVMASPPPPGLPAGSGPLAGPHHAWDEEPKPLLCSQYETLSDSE

[3] = target: Photoreceptor-specific nuclear receptor (Homo sapiens, UniProt Q9Y5X4); experiment: ligands suppressing NR2E3 nuclear receptor activity – biochemical, TR-FRET, dose response (AID 463256); format: functional
Chain of Photoreceptor-specific nuclear receptor (Q9Y5X4 whole entry): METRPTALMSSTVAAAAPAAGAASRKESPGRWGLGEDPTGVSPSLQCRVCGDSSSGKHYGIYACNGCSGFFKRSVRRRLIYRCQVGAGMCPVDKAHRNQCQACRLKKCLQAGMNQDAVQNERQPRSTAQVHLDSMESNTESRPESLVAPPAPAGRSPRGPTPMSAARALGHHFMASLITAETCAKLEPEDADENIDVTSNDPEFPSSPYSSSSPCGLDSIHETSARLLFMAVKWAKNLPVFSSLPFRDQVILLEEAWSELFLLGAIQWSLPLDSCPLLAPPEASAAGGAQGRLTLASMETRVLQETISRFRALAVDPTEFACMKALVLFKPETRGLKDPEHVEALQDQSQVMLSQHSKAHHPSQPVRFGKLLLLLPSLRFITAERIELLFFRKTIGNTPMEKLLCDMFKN

[4] = target: T2, Short transient receptor potential channel 4 (Mus musculus, UniProt Q9QUQ5); experiment: block of DAMGO-driven TRPC4 calcium entry – cell-based, HEK293 TRPC4/mu-opioid, Fluo-4 calcium, dose response (AID 434942); format: functional;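 note: potency of inhibitors blocking the TRPC4 calcium response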
T2 sequence (Q9QUQ5 whole entry): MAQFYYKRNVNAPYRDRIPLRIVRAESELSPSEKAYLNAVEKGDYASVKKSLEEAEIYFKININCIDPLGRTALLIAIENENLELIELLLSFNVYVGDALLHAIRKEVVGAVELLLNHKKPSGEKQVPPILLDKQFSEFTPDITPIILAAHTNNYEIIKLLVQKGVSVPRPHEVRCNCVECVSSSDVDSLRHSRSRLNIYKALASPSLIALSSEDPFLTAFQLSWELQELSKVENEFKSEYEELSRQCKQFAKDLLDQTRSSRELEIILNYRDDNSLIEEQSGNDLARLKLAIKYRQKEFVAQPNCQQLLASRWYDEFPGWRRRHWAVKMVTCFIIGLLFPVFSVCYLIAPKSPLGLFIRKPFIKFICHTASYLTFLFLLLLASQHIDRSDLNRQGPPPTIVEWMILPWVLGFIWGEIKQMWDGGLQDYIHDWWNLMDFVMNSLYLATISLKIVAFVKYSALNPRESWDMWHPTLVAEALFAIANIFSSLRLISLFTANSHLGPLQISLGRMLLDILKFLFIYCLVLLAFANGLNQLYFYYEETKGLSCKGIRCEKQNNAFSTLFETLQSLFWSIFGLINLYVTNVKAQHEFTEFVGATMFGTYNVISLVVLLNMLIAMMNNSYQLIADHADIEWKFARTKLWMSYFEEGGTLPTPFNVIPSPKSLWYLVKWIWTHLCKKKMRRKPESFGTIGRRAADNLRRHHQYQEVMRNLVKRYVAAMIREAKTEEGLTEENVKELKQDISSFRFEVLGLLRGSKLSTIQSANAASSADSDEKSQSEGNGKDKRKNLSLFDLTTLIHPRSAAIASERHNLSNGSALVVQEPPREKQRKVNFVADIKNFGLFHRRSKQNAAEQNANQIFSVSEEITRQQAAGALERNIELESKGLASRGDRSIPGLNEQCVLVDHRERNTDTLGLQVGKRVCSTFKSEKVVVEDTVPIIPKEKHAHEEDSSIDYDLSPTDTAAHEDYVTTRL

[5] = antifungal activity, alamar blue, dry powder, counter-screen for C. neoformans cell wall antifungals, dose response (AID 743128); format: functional, organism-based
[6] = loss of HEK293T viability via ATP – cell-based, plate reader, dry powder, set 10, cytotoxicity control, dose response (AID 743315); format: functional; details: HEK293
[7] = target: T3, Calpain-2 catalytic subunit (Sus scrofa, UniProt P43367); experiment: m-calpain protease blockers, concentration series – biochemical, fluorogenic peptide substrate, dose response (AID 1420); format: functional
T3 sequence (P43367 whole entry): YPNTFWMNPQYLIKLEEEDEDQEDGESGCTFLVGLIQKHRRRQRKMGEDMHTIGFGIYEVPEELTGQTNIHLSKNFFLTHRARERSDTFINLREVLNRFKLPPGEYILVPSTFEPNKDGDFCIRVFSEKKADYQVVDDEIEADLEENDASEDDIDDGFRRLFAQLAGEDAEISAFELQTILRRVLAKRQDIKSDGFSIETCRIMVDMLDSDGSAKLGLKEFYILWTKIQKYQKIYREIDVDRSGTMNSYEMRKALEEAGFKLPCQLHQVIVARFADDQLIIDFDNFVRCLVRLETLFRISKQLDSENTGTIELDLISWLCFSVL

[8] = viability loss in Vero cells – cytotoxicity control for Vif-APOBEC3G degradation inhibitor project, dose response (AID 1117358); format: functional; details: Vero
[9] = target: T4, Genome polyprotein (Hepatitis C virus, UniProt Q2Q167); experiment: disruption of hepatitis C core self-association – biochemical, TR-FRET, dose response (AID 2159); set-up: species or system Hepacivirus hominis;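 note: blocks dimerization of HCV core protein measured by TR-FRET between tagged core106 pairs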
T4 sequence (Q2Q167 whole entry): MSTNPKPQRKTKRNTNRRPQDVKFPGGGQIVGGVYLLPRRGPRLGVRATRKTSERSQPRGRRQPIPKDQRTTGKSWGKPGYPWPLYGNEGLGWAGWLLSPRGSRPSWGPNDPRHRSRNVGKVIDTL

[10] = target: T5, Bcl-2-related protein A1 (Mus musculus, UniProt Q07440); format: functional;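 note: confirmatory dose–response counterscreen on Bfl-1, used to check hits from a UBC13 polyubiquitin inhibitor campaign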
T5 sequence (Q07440 whole entry): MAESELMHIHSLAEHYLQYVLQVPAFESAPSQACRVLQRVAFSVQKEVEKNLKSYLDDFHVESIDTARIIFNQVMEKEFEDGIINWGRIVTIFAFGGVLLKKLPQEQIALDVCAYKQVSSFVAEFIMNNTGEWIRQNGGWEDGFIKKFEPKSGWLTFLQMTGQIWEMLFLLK

[11] = target: T6, Ubiquitin-conjugating enzyme E2 N (Homo sapiens, UniProt P61088); format: functional
T6 sequence (P61088 whole entry): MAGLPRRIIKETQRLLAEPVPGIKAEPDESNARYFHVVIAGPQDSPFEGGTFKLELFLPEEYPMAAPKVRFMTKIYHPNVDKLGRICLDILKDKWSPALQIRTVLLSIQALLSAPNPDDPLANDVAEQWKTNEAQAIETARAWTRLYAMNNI

[12] = target: T6, Ubiquitin-conjugating enzyme E2 N; format: functional; remark: listed apart in the source
[13] = target: T4, Genome polyprotein; experiment: Late stage assay provider counterscreen results for the probe development effort to identify inhibitors of Hepatitis C Virus (HCV) core protein dimerization: Luminescence-based biochemical AlphaScreen assay to identify inhibitors of HCV core dimerization.; format: functional, Hepacivirus hominis
[14] = target: Transthyretin (Homo sapiens, UniProt P02766); experiment: Luminescence-based cell-based high throughput dose response assay to identify activators of Transthyretin (TTR) transcription.; format: functional
[15] = viability of uninfected HEp-2 cells – cell-based, HTS, cytotoxicity control for RSV inhibitor project, dose response (AID 2410); format: functional; details: human respiratory syncytial virus
[16] = system: Streptococcus sp. 'group A'; experiment: Streptococcus pyogenes SK(-)GAS viability under kanamycin – luminescence, BacTiterGlo, confirmation, counter-screen for streptokinase expression inhibitor project, dose response (AID 1900); format: functional, organism-based
[17] = target: T7, Streptokinase A (Streptococcus pyogenes serotype M1, UniProt P10520); experiment: viability-normalized secreted streptokinase activity reduction – plasminogen activation absorbance, OD405, dose response (AID 1914); format: functional, Streptococcus pyogenes M1 GAS;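 note: secreted streptokinase activity via plasminogen activation per viability signal from cell pellet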
T7 sequence (P10520 whole entry): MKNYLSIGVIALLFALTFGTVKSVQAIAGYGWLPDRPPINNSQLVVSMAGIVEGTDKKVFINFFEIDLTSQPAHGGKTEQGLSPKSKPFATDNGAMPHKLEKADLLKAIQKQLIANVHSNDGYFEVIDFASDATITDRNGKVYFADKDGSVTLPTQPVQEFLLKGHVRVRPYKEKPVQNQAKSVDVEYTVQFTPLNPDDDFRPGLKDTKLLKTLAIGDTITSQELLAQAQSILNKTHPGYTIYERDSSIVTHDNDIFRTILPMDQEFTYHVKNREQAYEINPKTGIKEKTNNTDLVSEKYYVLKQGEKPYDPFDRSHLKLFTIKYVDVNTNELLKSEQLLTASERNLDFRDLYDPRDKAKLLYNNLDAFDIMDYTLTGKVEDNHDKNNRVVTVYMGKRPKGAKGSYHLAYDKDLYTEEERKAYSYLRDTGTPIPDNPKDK

[18] = M. tuberculosis growth inhibition, HTS (AID 449762); format: functional
[19] = system: Streptococcus; experiment: GAS UMAA2166 growth inhibition – luminescence, BacTiterGlo, counter-screen for streptokinase expression inhibitor project, dose response (AID 1915); format: functional, organism-based;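 note: potency for reduction of bacterial viability or growth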

In the case of `S=C(NNC(=S)Nc1ccccc1)Nc1ccccc1`, the IC50 [1] is reported as 321 nM (active).

In the case of `CCOCCCNC(=O)c1cc(-c2ccc(Br)s2)nc2ccccc12`, the IC50 [2] is reported as 4.18 µM (active) and the IC50 [3] is reported as 6.67 µM (active).

For `Cc1ccc(OCCn2c(C)nc3ccccc32)cc1`, the EC50 [4] was 944 nM (active), the AC50 [5] was 41.6 µM (active) and the AC50 [6] was 40.5 µM (active).

With `O=[N+]([O-])c1ccc(NCCCNS(=O)(=O)c2ccc(Cl)cc2)c(Cl)c1` the IC50 [7] was 3.17 µM (not active) and the CC50 [8] was > 40 µM (active).

In the case of `Cc1ccc(Cc2c(C)nc3nc(SCC(=O)NCCCN4CCCCCC4)nn3c2C)cc1`, the IC50 [9] is reported as 9.87 µM (active), the IC50 [10] is reported as > 20 µM (inactive) and the IC50 [11] is reported as 13.2 µM (active). The IC50 [12] was > 20 µM (inactive) and the IC50 [13] was 5 µM (active).

With `COc1ccc(-c2cc(C)no2)cc1S(=O)(=O)NCc1cccc(C)c1` the EC50 [14] was > 167 µM (inactive).

For `Oc1ccc(/C=N/n2c3ccccc3c3ccccc32)cc1`, the CC50 [15] was 17.2 µM (active), the EC50 [16] was 6.24 µM (active) and the EC50 [17] was > 150 µM (not active). The IC50 [18] was > 100 µM (active) and the EC50 [19] was 10.8 µM (active).
